From PubChem BioAssay AID2060357 (Molecular Pharmacology Branch, DTP, NCI, 2025)

Tested on: 292921-168-R-J2-PDC spheroids with HUVEC/MSC, viability
Assay: Anticancer human tumor 292921-168-R-J2-PDC patient-derived pancreatic carcinoma cell line growth inhibition [TAK]
Conditions: for IC50: curve of first compound; for viability, T/C: stronger effect = lower value
Description: Combinatorial screen of targeted agents with TAK-243 and ipatasertib in multi-cell type tumor spheroids
A high-throughput screen of multi-cell type tumor spheroids was designed to identify active combinations of targeted small molecules and TAK-243 or ipatasertib. Complex spheroids include a stromal component modeled by human endothelial cells (HUVEC) and fibroblasts modeled by human mesenchymal stem cells (MSCs). The concentration ranges selected for each drug and investigational agent were based upon clinically achievable concentrations if the clinical Cmax of the agent was known.
Compounds. The drugs and investigational agents: TAK-243 (785004), ipatasertib (767898), everolimus (733504), selumetinib (741078), bortezomib (756655), trametinib (758246), ixazomib (758254), vemurafenib (761431), dabrafenib (764134), sapanisertib (764658), alpelisib (765974), and copanlisib (816437), were obtained from the National Cancer Institute (NCI) Developmental Therapeutics Program Chemical Repository. The FDA-approved anticancer drug set is available from the NCI Developmental Therapeutics Program. […] The stock solutions were prepared in dimethyl sulfoxide (DMSO, Sigma-Aldrich, St. Louis, MO, cat. D2650) at 800-fold the tested concentration and stored at -70 degrees C prior to their use. All drugs and investigational agents were tested over a range starting from a high concentration at or near the clinical Cmax and decreasing in half-log increments. If the clinical Cmax for an agent had not been determined, the highest concentration tested was 10 microM.
NCI60 Cell Culture. NCI60 cell lines were obtained from the NCI Developmental Therapeutics Program Tumor Repository. For each lot of cells, the Repository performed Applied Biosystems AmpFLSTR Identifiler testing with PCR amplification to confirm consistency with the published Identifier STR profile for each cell line. Cells were kept in continuous culture for no more than 20 passages. The optimal seeding densities for each of the cell lines at each time point assessed were determined prior to performing the concentration response studies. Briefly, the NCI60 human tumor lines were grown as monolayers in RPMI 1640 medium supplemented with 10% FBS and 2 mmol/L L-glutamine.
An additional 2 lines were from the NCI60 cell line panel including melanomas, MALME-3M and SK-MEL-2. Pooled donor human umbilical vein endothelial cells (HUVEC, Lonza, cat. CC-2519) and human mesenchymal stem cells (hMSC, Lonza, cat. PT-2501) were purchased from Lonza (Walkersville, MD).
PDMR cell lines were grown in complete medium (DC medium): Dulbecco's modified Eagle's medium (DMEM)/F12 supplemented with 5% fetal bovine serum (FBS), 2 mM L-glutamine, 100 U/mL penicillin and 100 µg/ml streptomycin, 0.4 µg/ml hydrocortisone, 10 ng/ml epidermal growth factor (EGF) recombinant human protein, 24 µg/mL adenine, and 0.1 mg/mL primocin. During culture from frozen stock vials, PDMR cells were cultured in the same medium containing 10 µM Y-27632 (see Table 3). The PDCs were cultured in complete DMEM/F12 media without 10 microM Y-27632 dihydrochloride for at least two passages prior to the screen. The pooled donor HUVEC and hMSC were cultured in endothelial cell growth medium 2 (PromoCell, Heidelberg, Germany, cat. C-22011) and mesenchymal stem cell growth medium 2 (PromoCell, cat. C-28009), respectively. For all experiments, HUVEC and hMSC were used at passages </=5.
For the pre-screen, cell seeding densities were determined from a titration spanning the range from 5,000 to 313 cells per well. The mct-spheroids including 60% malignant cells, 25% HUVEC and 15% MSC dispensed as a mixture into U-bottom Ultra-Low Attachment 384-well plates (Corning, NY)
High-throughput Drug Combination Screening.
Prior to their inoculation into 384-well plates, malignant cells, HUVEC, and hMSC were removed from T flasks using TrypLE express (Thermo Fisher Scientific, cat. 12605036) and harvested by centrifugation for 5 min at 233 x g. […]

[1] = second compound 0.3 µM, first compound 0.00949 µM
[2] = second compound 0.3 µM, first compound 0.03 µM
[3] = second compound 0.949 µM, first compound 0.00949 µM
[4] = second compound 0.949 µM, first compound 0.03 µM
[5] = second compound 3 µM, first compound 0.00949 µM
[6] = second compound 3 µM, first compound 0.03 µM
[7] = second compound 9.49 µM, first compound 0.00949 µM
[8] = second compound 9.49 µM, first compound 0.03 µM
[9] = second compound 30 µM, first compound 0.00949 µM
[10] = second compound 30 µM, first compound 0.03 µM
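Also: spheroids exposed to drugs for seven days before readout.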

## CC(=O)Nc1cccc(-n2c(=O)n(C3CC3)c(=O)c3c(Nc4ccc(I)cc4F)n(C)c(=O)c(C)c32)c1 + CC(C)NCC(C(=O)N1CCN(c2ncnc3c2C(C)CC3O)CC1)c1ccc(Cl)cc1
Second compound 0.3 µM
  IC50: 0.45 nM
Second compound 0.949 µM
  IC50: 0.337 nM
Second compound 3 µM
  IC50: 0.209 nM
Second compound 9.49 µM
  IC50: 0.11 nM
Second compound 30 µM
  IC50: < 0.0949 nM
Second compound 0.3 µM, first compound 94.9 pM
  viability, T/C: 74.9%
Second compound 0.3 µM, first compound 0.0003 µM
  viability, T/C: 59.5%
Second compound 0.3 µM, first compound 0.000949 µM
  viability, T/C: 32.6%
Second compound 0.3 µM, first compound 0.003 µM
  viability, T/C: 25.7%
[1]
  viability, T/C: 19.8%
[2]
  viability, T/C: 13.9%
Second compound 0.949 µM, first compound 94.9 pM
  viability, T/C: 70.5%
Second compound 0.949 µM, first compound 0.0003 µM
  viability, T/C: 51.8%
Second compound 0.949 µM, first compound 0.000949 µM
  viability, T/C: 35.6%
Second compound 0.949 µM, first compound 0.003 µM
  viability, T/C: 26.6%
[3]
  viability, T/C: 17.8%
[4]
  viability, T/C: 13.1%
Second compound 3 µM, first compound 94.9 pM
  viability, T/C: 63.8%
Second compound 3 µM, first compound 0.0003 µM
  viability, T/C: 44%
Second compound 3 µM, first compound 0.000949 µM
  viability, T/C: 28.8%
Second compound 3 µM, first compound 0.003 µM
  viability, T/C: 22.5%
[5]
  viability, T/C: 16.6%
[6]
  viability, T/C: 12.3%
Second compound 9.49 µM, first compound 94.9 pM
  viability, T/C: 51.4%
Second compound 9.49 µM, first compound 0.0003 µM
  viability, T/C: 39%
Second compound 9.49 µM, first compound 0.000949 µM
  viability, T/C: 25.4%
Second compound 9.49 µM, first compound 0.003 µM
  viability, T/C: 18.8%
[7]
  viability, T/C: 14.3%
[8]
  viability, T/C: 10.7%
Second compound 30 µM, first compound 94.9 pM
  viability, T/C: 34.9%
Second compound 30 µM, first compound 0.0003 µM
  viability, T/C: 26.6%
Second compound 30 µM, first compound 0.000949 µM
  viability, T/C: 20.3%
Second compound 30 µM, first compound 0.003 µM
  viability, T/C: 16%
[9]
  viability, T/C: 12.2%
[10]
  viability, T/C: 9.91%

## CC(C)CC(NC(=O)C(Cc1ccccc1)NC(=O)c1cnccn1)B(O)O (stereo not given) + CC(C)NCC(C(=O)N1CCN(c2ncnc3c2C(C)CC3O)CC1)c1ccc(Cl)cc1
Second compound 0.3 µM
  IC50: 4.58 nM
Second compound 0.949 µM
  IC50: 4.11 nM
Second compound 3 µM
  IC50: 4.07 nM
Second compound 9.49 µM
  IC50: 3.99 nM
Second compound 30 µM
  IC50: < 0.0316 nM
Second compound 0.3 µM, first compound 31.6 pM
  viability, T/C: 83.7%
Second compound 0.3 µM, first compound 0.0001 µM
  viability, T/C: 86.5%
Second compound 0.3 µM, first compound 0.000316 µM
  viability, T/C: 88.6%
Second compound 0.3 µM, first compound 0.001 µM
  viability, T/C: 89.3%
Second compound 0.3 µM, first compound 0.00316 µM
  viability, T/C: 69%
Second compound 0.3 µM, first compound 0.01 µM
  viability, T/C: 9.99%
Second compound 0.949 µM, first compound 31.6 pM
  viability, T/C: 80.2%
Second compound 0.949 µM, first compound 0.0001 µM
  viability, T/C: 81.7%
Second compound 0.949 µM, first compound 0.000316 µM
  viability, T/C: 83.5%
Second compound 0.949 µM, first compound 0.001 µM
  viability, T/C: 80.9%
Second compound 0.949 µM, first compound 0.00316 µM
  viability, T/C: 62.9%
Second compound 0.949 µM, first compound 0.01 µM
  viability, T/C: 6.56%
Second compound 3 µM, first compound 31.6 pM
  viability, T/C: 73.9%
Second compound 3 µM, first compound 0.0001 µM
  viability, T/C: 76.1%
Second compound 3 µM, first compound 0.000316 µM
  viability, T/C: 72.6%
Second compound 3 µM, first compound 0.001 µM
  viability, T/C: 78.6%
Second compound 3 µM, first compound 0.00316 µM
  viability, T/C: 62.1%
Second compound 3 µM, first compound 0.01 µM
  viability, T/C: 6.46%
Second compound 9.49 µM, first compound 31.6 pM
  viability, T/C: 64.1%
Second compound 9.49 µM, first compound 0.0001 µM
  viability, T/C: 63%
Second compound 9.49 µM, first compound 0.000316 µM
  viability, T/C: 58.7%
Second compound 9.49 µM, first compound 0.001 µM
  viability, T/C: 58.5%
Second compound 9.49 µM, first compound 0.00316 µM
  viability, T/C: 62.8%
Second compound 9.49 µM, first compound 0.01 µM
  viability, T/C: 4.62%
Second compound 30 µM, first compound 31.6 pM
  viability, T/C: 41.7%
Second compound 30 µM, first compound 0.0001 µM
  viability, T/C: 40.5%
Second compound 30 µM, first compound 0.000316 µM
  viability, T/C: 41.3%
Second compound 30 µM, first compound 0.001 µM
  viability, T/C: 42.8%
Second compound 30 µM, first compound 0.00316 µM
  viability, T/C: 38.7%
Second compound 30 µM, first compound 0.01 µM
  viability, T/C: 6.44%

## Cn1cnc2c(F)c(Nc3ccc(Br)cc3Cl)c(C(=O)NOCCO)cc21 + CC(C)NCC(C(=O)N1CCN(c2ncnc3c2C(C)CC3O)CC1)c1ccc(Cl)cc1
Second compound 0.3 µM
  IC50: < 9.49 nM
Second compound 0.949 µM
  IC50: < 9.49 nM
Second compound 3 µM
  IC50: < 9.49 nM
Second compound 9.49 µM
  IC50: < 9.49 nM
Second compound 30 µM
  IC50: < 9.49 nM
[1]
  viability, T/C: 49.9%
[2]
  viability, T/C: 36.5%
Second compound 0.3 µM, first compound 0.0949 µM
  viability, T/C: 30.9%
Second compound 0.3 µM, first compound 0.3 µM
  viability, T/C: 26.8%
Second compound 0.3 µM, first compound 0.949 µM
  viability, T/C: 21.4%
Second compound 0.3 µM, first compound 3 µM
  viability, T/C: 13.1%
[3]
  viability, T/C: 45.3%
[4]
  viability, T/C: 34.7%
Second compound 0.949 µM, first compound 0.0949 µM
  viability, T/C: 30.9%
Second compound 0.949 µM, first compound 0.3 µM
  viability, T/C: 28.1%
Second compound 0.949 µM, first compound 0.949 µM
  viability, T/C: 21.5%
Second compound 0.949 µM, first compound 3 µM
  viability, T/C: 13%
[5]
  viability, T/C: 39.5%
[6]
  viability, T/C: 30.3%
Second compound 3 µM, first compound 0.0949 µM
  viability, T/C: 27.6%
Second compound 3 µM, first compound 0.3 µM
  viability, T/C: 24.1%
Second compound 3 µM, first compound 0.949 µM
  viability, T/C: 17.3%
Second compound 3 µM, first compound 3 µM
  viability, T/C: 11.8%
[7]
  viability, T/C: 32.2%
[8]
  viability, T/C: 24.5%
Second compound 9.49 µM, first compound 0.0949 µM
  viability, T/C: 22.6%
Second compound 9.49 µM, first compound 0.3 µM
  viability, T/C: 20.6%
Second compound 9.49 µM, first compound 0.949 µM
  viability, T/C: 15.6%
Second compound 9.49 µM, first compound 3 µM
  viability, T/C: 10.9%
[9]
  viability, T/C: 25.3%
[10]
  viability, T/C: 21.2%
Second compound 30 µM, first compound 0.0949 µM
  viability, T/C: 18.4%
Second compound 30 µM, first compound 0.3 µM
  viability, T/C: 17.5%
Second compound 30 µM, first compound 0.949 µM
  viability, T/C: 13.8%
Second compound 30 µM, first compound 3 µM
  viability, T/C: 8.92%
